Molecular target: T1, CEACAM5 (Homo sapiens, UniProt P06731)
T1 sequence (P06731 35-702): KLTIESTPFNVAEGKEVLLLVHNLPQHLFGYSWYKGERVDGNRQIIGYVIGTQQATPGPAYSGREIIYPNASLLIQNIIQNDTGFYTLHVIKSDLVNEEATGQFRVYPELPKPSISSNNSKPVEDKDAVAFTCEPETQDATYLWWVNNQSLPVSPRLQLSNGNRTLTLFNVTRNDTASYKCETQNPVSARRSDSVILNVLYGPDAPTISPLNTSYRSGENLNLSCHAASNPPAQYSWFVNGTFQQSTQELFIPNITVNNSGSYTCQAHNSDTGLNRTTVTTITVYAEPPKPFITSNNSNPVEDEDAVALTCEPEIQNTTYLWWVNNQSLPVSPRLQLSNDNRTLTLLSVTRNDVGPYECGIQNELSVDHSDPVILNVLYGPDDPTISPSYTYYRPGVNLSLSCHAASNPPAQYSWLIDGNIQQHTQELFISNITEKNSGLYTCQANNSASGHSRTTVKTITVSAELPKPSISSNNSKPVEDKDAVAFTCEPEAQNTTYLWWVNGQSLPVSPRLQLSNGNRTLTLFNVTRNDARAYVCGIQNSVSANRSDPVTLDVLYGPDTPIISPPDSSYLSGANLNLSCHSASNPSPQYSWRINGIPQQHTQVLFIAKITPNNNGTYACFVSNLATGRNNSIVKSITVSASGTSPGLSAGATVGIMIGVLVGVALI
Assay: Surface plasmon resonance (Biacore)
Format: binding
Details: CEACAM5, SPR

COc1ccc2[nH]c(-c3cccc(F)c3)cc(=O)c2c1O [CVM-1125]
No interaction: Association (ka) | Dissociation (kd) | KD (kd/ka)

From article PMC10283505, “CVM-1118 (foslinanib), a 2-phenyl-4-quinolone derivative, promotes apoptosis and inhibits vasculogenic mimicry via targeting TRAP1” (Pathology and Oncology Research, 2023)
